The values that follow come from paper PMC11284787, “Ligand-Directed Labeling of the Adenosine A1 Receptor in Living Cells” (Journal of Medicinal Chemistry, 2024).

In the experiment the target is T1, NL-rA1AR (Rattus norvegicus, UniProt P25099).
T1 construct: expressed in transfected cells
T1 sequence (P25099 1-326): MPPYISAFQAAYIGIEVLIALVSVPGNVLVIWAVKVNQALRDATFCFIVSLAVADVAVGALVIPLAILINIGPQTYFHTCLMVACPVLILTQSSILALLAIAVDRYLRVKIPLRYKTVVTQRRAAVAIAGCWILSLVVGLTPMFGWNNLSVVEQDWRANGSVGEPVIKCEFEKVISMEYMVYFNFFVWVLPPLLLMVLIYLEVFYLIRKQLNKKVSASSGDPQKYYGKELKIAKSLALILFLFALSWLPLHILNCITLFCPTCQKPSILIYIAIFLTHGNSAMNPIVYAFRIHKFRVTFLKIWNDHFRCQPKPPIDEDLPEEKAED
The experiment in a line: NanoBRET saturation ligand-binding assay, NL-rA1AR. The protocol: The ligand-binding properties of the newly synthesized probes were assessed in a series of pharmacological assays. Initially, a NanoBRET[47],[48] saturation binding experiment was used to evaluate the binding affinity of ligand-directed probes functionally labeled with the SulfoCy5 fluorophore (11) to the NanoLuc(NL)-tagged[49] hA1AR expressed in HEK293T cells.
NanoBRET binding assay. All NanoBRET experiments were performed in white flat […]
37 °C for kinetic binding experiments. Emissions were read at 420 nm (80 nm bandpass; […]
the SulfoCy5-labelled probe. […]
nm emission by the 420 nm emission. The term “raw BRET ratio” refers to the unprocessed data as no background ratio has been subtracted. In all NanoBRET binding […]
competitive antagonist selective for the adenosine receptor under investigation […]
MRS1220 for the A3AR). HEK293T cells stably/transiently expressing Nluc-AR were […]
were incubated for 1 h at 37 °C. […]
NanoBRET saturation binding assay. Total and nonspecific saturation binding curves were fit simultaneously using the following equation: […]
Background: BRET reads energy transfer from a luciferase to a nearby fluorophore.

SMILES strings stand for the structures. Read-outs that look alike come from different tables or passages of the source.

Turning to `CCCCn1c(=O)c2[nH]c(C34CCC(C(=O)NCCNC(=O)CCNC(=O)c5ccc(OC(=O)CCCCC[N+]6=C(/C=C/C=C/C=C7/N(C)c8ccc(S(=O)(=O)O)cc8C7(C)C)C(C)(C)c7cc(S(=O)(=O)[O-])ccc76)c(F)c5)(CC3)CC4)nc2n(CCCC)c1=O` [Compound 11, 1-(6-(4-((3-((2-(4-(1,3-Dibutyl-2,6-dioxo-2,3,6,7-tetrahydro-1H-purin-8-yl)bicyclo[2.2.2]octane-1-carboxamido)ethyl)amino)-3-oxopropyl)carbamoyl)-2-fluorophenoxy)-6-oxohexyl)-3,3-dimethyl-2-((1E,3E)-5-((E)-1,3,3-trimethyl-5-sulfoindolin-2-ylidene)penta-1,3-dien-1-yl)-3H-indol-1-ium-5-sulfonate], the Kd is 9.12 nM (HEK293T cells stably expressing rat NanoLuc-A1AR, mean ± SEM, read-out: affinity values pKD, NL-rA1AR (converted)) and 10.2 nM (supplementary CSV, read-out: AFFINITY (A1AR_rat) pKD (converted)).
